Data on six compounds can be found in ChEMBL document CHEMBL2203104, “Recent advances in antitubercular natural products” (Eur J Med Chem, 2012).

≈ marks a conversion by molar mass, not a printed value.

A word on the MIC: it is the lowest concentration that inhibits growth of the organism.

Common to all, as to format: functional
The test system of assay [1] is Mycobacterium tuberculosis. The experiment in a line: Antimycobacterial activity against Mycobacterium tuberculosis H37Rv under aerobic condition.
In assay [2] the test system is Mycobacterium tuberculosis. The experiment in a line: Antimycobacterial activity against Mycobacterium tuberculosis H37Ra.
Assay [3] deals with Mycobacterium tuberculosis. Briefly: Antimycobacterial activity against Mycobacterium tuberculosis H37Rv under anaerobic condition.
A short description of assay [4]: Selectivity index, ratio of CC50 for lymphocytes to MIC for Mycobacterium tuberculosis H37Rv isolate WC 51/02.
The nature of assay [5]: Selectivity index, ratio of CC50 for lymphocytes to MIC for Mycobacterium tuberculosis H37Rv isolate WC 64/02.
The test system of assay [6] is Mycobacterium tuberculosis. Briefly: Antimycobacterial activity against Mycobacterium tuberculosis H37Rv isolate WC 64/02.
The subject of assay [7] is Mycobacterium tuberculosis. Briefly: Antimycobacterial activity against Mycobacterium tuberculosis H37Rv isolate WC 51/02.
Assay [8] deals with Mycobacterium tuberculosis. Briefly: Antimycobacterial activity against Mycobacterium tuberculosis Erdman by microplate alamar blue assay.
Assay [9] concerns Mycobacterium tuberculosis. Briefly: Antimycobacterial activity against Mycobacterium tuberculosis H37Rv. Conditions: Mycobacterium tuberculosis, H37Rv; read-out: MIC.
The subject of assay [10] is Mycobacterium tuberculosis. The experiment in a line: Antimycobacterial activity against Mycobacterium tuberculosis H242.
In assay [11] the test system is Mycobacterium tuberculosis. The experiment in a line: Growth inhibition of Mycobacterium tuberculosis H37Rv at 6.25 ug/ml. Conditions: read-out: GI.
Assay [12] relates to Mycobacterium tuberculosis. The experiment in a line: Antimycobacterial activity against Mycobacterium tuberculosis H37Rv by liquid microdilution method. For orientation: Dilution methods test growth across graded concentrations, often in twofold steps.

As to `CCCC/C=C/C#CC#CCCCCCCCC(=O)O` [EXOCARPIC ACID], the figures for the minimal inhibitory concentration (MIC) in assay [1], in assay [2] and in [3] were 20 µg/mL (≈ 72.9 µM), 20 µg/mL (≈ 72.9 µM) and 87 µg/mL (≈ 317 µM), respectively.
With `Cc1cc(O)c2c(c1)C(=O)C=CC2=O` [RAMENTACEONE], the “Selectivity Index” value in assay [4] and in [5] was less than 8 throughout. Moreover, the MIC in assay [6] and in assay [7] was 0.5 µg/mL (≈ 2.66 µM) each time.
`C=CC(O)C#CC#CC(O)/C=C\CCCCCCCCOC(C)=O` (stereo not drawn): the MIC in [8] turned out to be 1.4 µg/mL (≈ 4.21 µM); in assay [9], 25.3 µg/mL (≈ 76.1 µM).
Take `CCCCCCCC/C=C\CCCCCCCCCCCCCCCC[C@@H](O)C(=O)N[C@@H](CO[C@@H]1O[C@H](CO)[C@H](O)[C@H](O)[C@H]1O)[C@H](O)[C@H](O)CCC/C=C\CCCCCCCCC`: the minimum inhibitory concentration (MIC) in assay [10] and in assay [9] was 40 µg/mL (≈ 44.5 µM) in each case.
Take `C[C@@H]1CC[C@@H]2[C@@H](C)C[C@@H](C(=O)/C=C\O)[C@]2(O)C1=O` [ELISABETHIN H]: the inhibition of growth at 6.25 µg/mL in assay [11] worked out at 51%.
`CC[C@H](C)[C@@H](NC(=O)[C@@H](CCC(=O)O)NC(=O)[C@H](Cc1cnc[nH]1)NC(=O)[C@H](CC(C)C)NC(=O)[C@H](N)Cc1ccccc1)C(=O)N[C@H]1CCCCNC1=O` [CALPINACTAM] displayed an MIC in assay [12] of 12.5 µg/mL (≈ 16.3 µM).
